# Data reported in patent publication US10406120B2, “Methods and compositions for treating kidney disorders” (Golden Biotechnology Corporation, priority 2013, dated 2019).
# Legend:
# [1] = test system: IL-6; assay: AcP-IgAN model: renal IL-6 mRNA and protein; assay type: in vivo, B cell-deficient mice; settings: AcP-IgAN mice
# Procedure: B cell-deficient mice (B6.129S2-Igh-6tm1Cgn/J) were obtained from the Academia Sinica (Professor John T. Kung, Institute of Molecular Biology), and maintained at the animal center of the National Defense Medical Center, Taipei, Taiwan. AcP-IgAN was induced in the mice by daily injection of purified IgA anti-phosphorylcholine antibodies and pneumococcal C-polysaccharide (PnC) as described previously (Chao, et al., Kidney Int. 70:283-297; 2006). All animal experiments were performed with the approval of the Institutional Animal Care and Use Committee of The National Defense Medical Center, Taiwan, and were consistent with the NIH Guide for the Care and Use of Laboratory Animals.
# For IHC, formalin fixed and paraffin embedded tissue sections or frozen sections were incubated with against IL-6 (R&D Systems, MN), MCP-1 (Santa Cruz, Calif.), F4/80 (monocytes/macrophages; Serotec, N.C.), collagen IV (Southern Biotech, AL), TGF-β1 (Santa Cruz), phopsho-NFκB p65 (Cell Signaling, MA), CD3 (pan-T cell; Serotec), CD4 (T helper cell; BioLegend, CA), CD8 (cytotoxic T cell), CD11b (macrophages/neutrophils), or CD11c (dendritic cells) (BD Biosciences, CA) antibodies. The FITC-conjugated, Alexa Fluor 488-conjugated (Invitrogen, CA) or horseradish peroxidase (HRP) conjugated secondary antibodies (DAKO, Denmark) were then applied to the sections. Hematoxylin or 4′,6-diamidino-2-phenylindole (DAKO) was used in the counter staining for nuclei.
# Total cortical kidney RNA was extracted with TriZOL reagents (Invitrogen) from cortical tissue of the kidney. For first-strand cDNA synthesis, 1.5 μg of total RNA was used in a single-round reverse transcriptase reaction. The reaction mixture consisted of 0.9 μl of Oligo (dT) 12 to 18 primer, 1.0 mM deoxyribonucleotide triphosphate (dNTP), 1 μl first strand buffer, 0.4 mM dithiothreitol, 80 U of RNaseout recombinant ribonuclease inhibitor, and 300 U of superscript II RNase H (Invitrogen). Real-time PCR was performed on an ABI Prism 7700 Sequence Detection System (Applied Biosystems, CA). […]
# [2] = test system: NAD(P)H oxidase subunit p47^phox; assay: FSGS model: Western blot of cytosolic p47^phox in kidney; assay type: in vivo, BALB/c mice; settings: FSGS mice, day 14 to day 21, vs control FSGS mice
# Procedure: (§1) Experiments described herein were performed on 8-week-old female BALB/c mice. The FSGS mice were injected intravenously with a single dose of adriamycin (0.1 mg/10 g body weight). The mice were given Compound 1 six hours before adriamycin injection by gavage daily till sacrifice. BALB/c mice intraperitoneal injected with normal saline were used as normal controls, while ASLN mice given vehicle (corn oil) by gavage were used as disease controls. Mice were killed at day 7, 14, or 21 after disease induction, and spleen, renal cortical tissue, and blood samples collected and stored appropriately until analysis. All animal experiments were performed with the ethical approval of the Institutional Animal Care and Use Committee of The National Defense Medical Center, Taiwan and performed according to the ethical rules in the NIH Guide for the Care and Use of Laboratory Animals.
# The preparation of cytoplasmic and nuclear proteins of renal tissues was extracted using the Nuclear Extract Kit (Active Motif, Tokyo, Japan) according to the manufacturer's instructions. Target proteins in the cytoplasmic and/or nuclear fractions of kidney tissue were measured by Western blot analysis using rabbit antibodies against mouse Nrf2, or p47^phox (Santa Cruz). […]
# [3] = test system: NF-κB p65; assay: FSGS model: renal NF-κB activation (IHC, ELISA); assay type: in vivo, BALB/c mice; settings: FSGS mice
# Procedure: as §1
# For IHC, formalin-fixed and paraffin-embedded renal sections were prepared and incubated with primary antibodies against mouse Desmin (Lab Vision, CA, USA), CD3 (pan-T cell; Serotec, N.C., USA), F4/80 (monocytes/macrophages; Serotec), IL-6 (R&D Systems, MN, USA), NF-κB p65 (Cell Signaling Technology, MA, USA), collagen I, III, and IV (Southern Biotech, AL, USA), or TGF-β1 (Santa Cruz Biotechnology, CA, USA), biotinylated second antibodies (Dako, Glostrup, Denmark), and avidin-biotin-peroxidase complex (Dako). Semi-quantitative evaluation of staining was performed.
# Nuclear proteins were extracted using a nuclear extract kit (Active Motif, Japan). Phospho-NF-κB p65 and nuclear factor-erythroid-2-related factor 2 (NrF2) were measured in renal tissue nuclear protein extracts using Trans-AM ELISA assay kits (Active Motif), according to the manufacturer's instructions. Renal cytosolic protein extracts using RIPA buffer (Cell signaling). Cytosolic glutathione peroxidase (GPx) (Cayman, Mich.) and cytosolic heme oxygenase-1 (HO-1) (Enzo Life Sciences, NY) were measured using commercial ELISA kits according to the manufacturer's instructions. Both were expressed relative to the protein concentration in the lysate.
# [4] = day 28, vs control AcP-IgAN mice
compound,measurement,setting,value
"COC1=C(OC)[C@H](O)[C@H](C/C=C(\C)CC/C=C(\C)CCC=C(C)C)[C@@H](C)C1=O [Compound 1, Antroquinonol]",renal expression levels of mRNA and protein of IL-6,[1]; day 3,no such effect
same,renal expression levels of mRNA of IL-6,[1]; [4],significantly reduced
same,renal expression levels of protein of IL-6,[1]; [4],significantly reduced
same,protein levels of NAD(P)H oxidase subunit p47^phox in kidney (increase in FSGS),[2],abolished
same,"nuclear protein expression of NF-κB p65 (ELISA, renal nuclear extracts)",[3]; day 7,no significant difference
same,"nuclear protein expression of NF-κB p65 (ELISA, renal nuclear extracts)",[3]; day 14,slightly blocked
same,"NF-κB activation, nuclear NF-κB p65 expression (IHC)","[3]; day 14 and day 21, vs control FSGS mice",markedly inhibited
same,"nuclear protein expression of NF-κB p65 (ELISA, renal nuclear extracts)",[3]; day 21,significantly inhibited
